Patent US6737383B1, “Herbicidal oxadiazolidines” (priority 1999, dated 2004)

Experiments:
smallflower flatsedge = experiment: Test B flood test smallflower flatsedge; type: in vivo, Cyperus difformis
Procedure, shortened: (§1)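 Read-out is a visual response score from 0 (no effect) to 10 (complete control), assigned by comparison with untreated controls. Treatment was applied at the 2-leaf stage, and plants stayed in the greenhouse for twelve to sixteen days before scoring.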

sugar beet = experiment: Test B pre/postemergence sugar beet; type: in vivo, Beta vulgaris
Procedure, shortened: (§2)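 Test chemicals in a non-phytotoxic solvent mixture with surfactant were sprayed preemergence onto planted seeds and postemergence onto plants 2 to 18 cm tall (1- to 4-leaf stage). After twelve to sixteen days in a greenhouse, injury was visually rated against untreated controls from 0 (no effect) to 10 (complete control).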

wild oat = experiment: Test B pre/postemergence wild oat; type: in vivo, Avena fatua
Procedure, shortened: as §2

blackgrass = experiment: Test B pre/postemergence blackgrass; type: in vivo, Alopecurus myosuroides
Procedure, shortened: as §2

cocklebur = experiment: Test B pre/postemergence cocklebur; type: in vivo, Xanthium strumarium
Procedure, shortened: as §2

bedstraw = experiment: Test B pre/postemergence bedstraw; type: in vivo, Galium aparine
Procedure, shortened: as §2

rice = experiment: Test B flood test rice; type: in vivo, Oryza sativa
Procedure, shortened: as §1

velvetleaf = experiment: Test B pre/postemergence velvetleaf; type: in vivo, Abutilon theophrasti
Procedure, shortened: as §2

giant foxtail = experiment: Test B pre/postemergence giant foxtail; type: in vivo, Setaria faberii
Procedure, shortened: as §2

pigweed = experiment: Test B pre/postemergence pigweed; type: in vivo, Amaranthus retroflexus
Procedure, shortened: as §2

surinam grass = experiment: Test B pre/postemergence surinam grass; type: in vivo, Brachiaria decumbens
Procedure, shortened: as §2

rape = experiment: Test B pre/postemergence rape; type: in vivo, Brassica napus
Procedure, shortened: as §2

bamyardgrass = experiment: Test B flood test barnyardgrass; type: in vivo, Echinochloa crus-galli
Procedure, shortened: as §1

corn = experiment: Test B pre/postemergence corn; type: in vivo, Zea mays
Procedure, shortened: as §2

crabgrass = experiment: Test B pre/postemergence crabgrass; type: in vivo, Digitaria sanguinalis
Procedure, shortened: as §2

morningglory = experiment: Test B pre/postemergence morningglory; type: in vivo, Ipomoea hederacea
Procedure, shortened: as §2

[1] = Rate 62 g/ha, headed Pre-emergence (flood test species), scale 0 to 10 (0 no effect, 10 complete control)
[2] = Rate 125 g/ha, Pre-emergence, flood test species, scale 0 to 10 where 0 is no effect and 10 is complete control
[3] = Rate 250 g/ha, Pre-emergence, flood-test species, scale 0 to 10, 0 is no effect, 10 is complete control
[4] = Preemergence, Rate 62 g/ha, scale of 0 to 10 where 0 is no effect and 10 is complete control
[5] = Preemergence, Rate 125 g/ha, 0 is no effect, 10 is complete control
[6] = Preemergence, Rate 250 g/ha, scale 0 to 10, 0 is no effect, 10 is complete control
[7] = Preemergence, Rate 500 g/ha, scale 0 to 10 (0 no effect, 10 complete control)
[8] = Rate 62 g/ha, Postemergence, scale of 0 to 10 where 0 is no effect and 10 is complete control
[9] = Rate 125 g/ha, Postemergence, scale 0 to 10
[10] = Rate 500 g/ha, Postemergence, scale 0 to 10
[11] = Rate 500 g/ha, headed Pre-emergence (flood test species), scale 0 to 10 (0 no effect, 10 complete control)

CCN(C(=O)n1oc(=O)n(C(C)C)c1=O)c1nncs1 [Compound 190]
S. Flatsedge plant response rating (smallflower flatsedge; [1]): 0 | S. Flatsedge plant response rating (smallflower flatsedge; [2]): 0 | S. Flatsedge plant response rating (smallflower flatsedge; [3]): 0 | S. Flatsedge plant response rating (smallflower flatsedge; Rate 500 g/ha, Pre-emergence, flood test species, scale 0 to 10 (0 no effect, 10 complete control)): 0 | Sugarbeets plant response rating (sugar beet; [4]): 0 | Sugarbeets plant response rating (0 to 10 scale) (sugar beet; [5]): 0 | Sugarbeets plant response rating (sugar beet; [6]): 0 | Sugarbeets plant response rating (sugar beet; [7]): 0 | Sugarbeets plant response rating (sugar beet; [8]): 0 | Sugarbeets plant response rating (sugar beet; [9]): 0 | Plant response rating (0 to 10; 0 is no effect, 10 is complete control), Sugarbeets (sugar beet; Rate 250 g/ha, Postemergence): 0 | Sugarbeets plant response rating (sugar beet; [10]): 0 | Wild oats plant response rating (wild oat; [4]): 0 | Wild oats plant response rating (wild oat; [6]): 0 | Wild oats plant response rating (wild oat; [7]): 0 | Wild oats plant response rating (wild oat; [8]): 0 | Wild oats plant response rating (wild oat; [9]): 0 | Plant response rating (0 to 10; 0 is no effect, 10 is complete control), Wild oats (wild oat; Rate 250 g/ha, Postemergence): 0 | Blackgrass plant response rating (blackgrass; [4]): 0 | Blackgrass plant response rating (0 to 10 scale) (blackgrass; [5]): 0 | Blackgrass plant response rating (blackgrass; [6]): 0 | Blackgrass plant response rating (blackgrass; [7]): 3 | Blackgrass plant response rating (blackgrass; [8]): 0 | Blackgrass plant response rating (blackgrass; [9]): 0 | Plant response rating (0 to 10; 0 is no effect, 10 is complete control), Blackgrass (blackgrass; Rate 250 g/ha, Postemergence): 0 | Blackgrass plant response rating (blackgrass; [10]): 0 | Cocklebur plant response rating (cocklebur; [4]): 0 | Cocklebur plant response rating (0 to 10 scale) (cocklebur; [5]): 0 | Cocklebur plant response rating (cocklebur; [6]): 0 | Cocklebur plant response rating (cocklebur; [7]): 0 | Cocklebur plant response rating (cocklebur; [8]): 0 | Cocklebur plant response rating (cocklebur; [9]): 0 | Plant response rating (0 to 10; 0 is no effect, 10 is complete control), Cocklebur (cocklebur; Rate 250 g/ha, Postemergence): 0 | Cocklebur plant response rating (cocklebur; [10]): 0 | Bedstraw plant response rating (bedstraw; [4]): 0 | Bedstraw plant response rating (bedstraw; [6]): 0 | Bedstraw plant response rating (bedstraw; [7]): 4 | Bedstraw plant response rating (bedstraw; [8]): 0 | Bedstraw plant response rating (bedstraw; [9]): 0 | Plant response rating (0 to 10; 0 is no effect, 10 is complete control), Bedstraw (bedstraw; Rate 250 g/ha, Postemergence): 0 | Bedstraw plant response rating (bedstraw; [10]): 0 | Rice plant response rating (rice; [1]): 0 | Rice plant response rating (rice; [2]): 0 | Rice plant response rating (rice; [3]): 0 | Plant response rating, Rice (rice; [11]): 0 | Velvetleaf plant response rating (velvetleaf; [4]): 0 | Velvetleaf plant response rating (velvetleaf; [6]): 0 | Velvetleaf plant response rating (velvetleaf; [7]): 0 | Velvetleaf plant response rating (velvetleaf; [8]): 0 | Velvetleaf plant response rating (velvetleaf; [9]): 0 | Plant response rating (0 to 10; 0 is no effect, 10 is complete control), Velvetleaf (velvetleaf; Rate 250 g/ha, Postemergence): 0 | Giant foxtail plant response rating (giant foxtail; [4]): 0 | Giant foxtail plant response rating (0 to 10 scale) (giant foxtail; [5]): 0 | Giant foxtail plant response rating (giant foxtail; [6]): 0 | Giant foxtail plant response rating (giant foxtail; [7]): 0 | Giant foxtail plant response rating (giant foxtail; [8]): 0 | Giant foxtail plant response rating (giant foxtail; [9]): 0 | Plant response rating (0 to 10; 0 is no effect, 10 is complete control), Giant foxtail (giant foxtail; Rate 250 g/ha, Postemergence): 0 | Giant foxtail plant response rating (giant foxtail; [10]): 0 | Redroot pigweed plant response rating (pigweed; [4]): 0 | Redroot pigweed plant response rating (0 to 10 scale) (pigweed; [5]): 0 | Redroot pigweed plant response rating (pigweed; [6]): 0 | Redroot pigweed plant response rating (pigweed; [7]): 0 | Redroot pigweed plant response rating (pigweed; [8]): 0 | Redroot pigweed plant response rating (pigweed; [9]): 0 | Plant response rating (0 to 10; 0 is no effect, 10 is complete control), Redroot pigweed (pigweed; Rate 250 g/ha, Postemergence): 0 | Redroot pigweed plant response rating (pigweed; [10]): 0 | B. signalgrass plant response rating (surinam grass; [4]): 0 | B. signalgrass plant response rating (0 to 10 scale) (surinam grass; [5]): 0 | B. signalgrass plant response rating (surinam grass; [6]): 0 | B. signalgrass plant response rating (surinam grass; [7]): 0 | B. signalgrass plant response rating (surinam grass; [8]): 0 | B. signalgrass plant response rating (surinam grass; Rate 125 g/ha, Postemergence, scale 0 (no effect) to 10 (complete control)): 0 | Plant response rating, B. signalgrass (surinam grass; Rate 250 g/ha, Postemergence, scale 0 to 10, 0 is no effect, 10 is complete control): 0 | B. signalgrass plant response rating (surinam grass; Rate 500 g/ha, Postemergence, scale 0 to 10, 0 no effect, 10 complete control): 0 | Rape plant response rating (rape; [4]): 0 | Rape plant response rating (0 to 10 scale) (rape; [5]): 0 | Rape plant response rating (rape; [6]): 0 | Rape plant response rating (rape; [7]): 0 | Rape plant response rating (rape; [8]): 0 | Rape plant response rating (rape; [9]): 0 | Plant response rating (0 to 10; 0 is no effect, 10 is complete control), Rape (rape; Rate 250 g/ha, Postemergence): 0 | Rape plant response rating (rape; [10]): 0 | Barnyardgrass plant response rating (bamyardgrass; [1]): 0 | Barnyardgrass plant response rating (bamyardgrass; [2]): 0 | Barnyardgrass plant response rating (bamyardgrass; [3]): 0 | Plant response rating, Barnyardgrass (bamyardgrass; [11]): 0 | Corn plant response rating (corn; [4]): 0 | Corn plant response rating (0 to 10 scale) (corn; [5]): 0 | Corn plant response rating (corn; [6]): 0 | Corn plant response rating (corn; [7]): 0 | Corn plant response rating (corn; [8]): 0 | Corn plant response rating (corn; [9]): 0 | Plant response rating (0 to 10; 0 is no effect, 10 is complete control), Corn (corn; Rate 250 g/ha, Postemergence): 0 | Corn plant response rating (corn; [10]): 0 | Crabgrass plant response rating (crabgrass; [4]): 0 | Crabgrass plant response rating (0 to 10 scale) (crabgrass; [5]): 0 | Crabgrass plant response rating (crabgrass; [6]): 0 | Crabgrass plant response rating (crabgrass; [7]): 0 | Crabgrass plant response rating (crabgrass; [8]): 0 | Crabgrass plant response rating (crabgrass; [9]): 0 | Plant response rating (0 to 10; 0 is no effect, 10 is complete control), Crabgrass (crabgrass; Rate 250 g/ha, Postemergence): 0 | Crabgrass plant response rating (crabgrass; [10]): 0 | Morningglory plant response rating (morningglory; [4]): 0 | Morningglory plant response rating (0 to 10 scale) (morningglory; [5]): 0 | Morningglory plant response rating (morningglory; [6]): 0 | Morningglory plant response rating (morningglory; [7]): 0 | Morningglory plant response rating (morningglory; [8]): 0 | Morningglory plant response rating (morningglory; [9]): 0 | Plant response rating (0 to 10; 0 is no effect, 10 is complete control), Morningglory (morningglory; Rate 250 g/ha, Postemergence): 0 | Morningglory plant response rating (morningglory; [10]): 0
